Data on two compounds can be found in publication PMC4931847, “Preclinical validation of a novel compound targeting p70S6 kinase in breast cancer” (Aging (Albany NY), 2016).

The subject of data set [1] is advanced solid tumors. Further details: method as in PMID 24456794, PMID 24440085. Conditions: cited from earlier work.
The test system of data set [2] is MDA-MB-231 cells. Kind of data set: Soft agar anchorage-independent growth assay. The data set is classed as cell-based, human. Conditions: MDA-MB-231, soft agar, 3% WF, 10 or 20μM, three weeks. An excerpt: Vinculin was used as loading control. (B) Same as in (A) but the analysis was focused on STAT3 and Src signaling pathways. Actin was used as loading control. […] Two weeks later plates were stained with crystal violet and colonies photographed (C) and counted (D). […] After three weeks, colonies were photographed (E) and counted (F). Values reported in (D) and (F) represent the mean (± S.D.) of two independent experiments performed in duplicate. * p<0.05; ** p<0.01; *** p<0.001.
Both number and size of the colonies were affected, signifying that, in this context, activity of p70S6K was necessary for both survival and proliferation of breast cancer cells (Fig. 2E and F).
The experiments were performed in six-well tissue culture plates, in triplicate. Fresh medium was added to the wells twice a week as a feeder layer. After three weeks, the number of colonies was counted at 4X magnification.

Data set [3] relates to breast cancer local relapse. Further details: method as in PMID 23899505, PMID 24661902, PMID 18316551. As to conditions: mouse model of breast cancer ref 9,10,24; cited from earlier work.

Regarding `Cc1ccc(S(=O)(=O)O)cc1.Cn1cc(-c2ccc(F)c(C(F)(F)F)c2)nc1C1CCN(c2ncnc3[nH]ncc23)CC1` [LY2584702 tosylate], in data set [1] (alone or in combination with erlotinib or everolimus, phase I trials ref 11,12), the clinical benefit entry is “very limited clinical benefit”. In addition, the tolerability result in data set [1] (particularly when administered with erlotinib ref 11,12) was “low tolerability”.
Take `CCc1cncnc1N1CCN(Cc2nc3ccc(C(F)(F)F)cc3[nH]2)CC1` [PF-4708671]: in data set [2], the “ability to survive and grow in anchorage independence” value was “significantly decreased”. In addition, the “breast cancer local relapse” value in data set [3] is listed as “strongly impaired”.
